{"source": "ChEMBL document CHEMBL1201862", "about": "“PubChem BioAssay data set” (2004)", "assay_in_all_cases": "NCI anticancer screen, dose series, 48 h", "key": {"RXF 393": {"system": "RXF 393"}, "COLO 205": {"system": "COLO 205"}, "RPMI-8226": {"system": "RPMI-8226"}, "NCI-H23": {"system": "NCI-H23"}, "HOP-62": {"system": "HOP-62"}, "A549": {"system": "A549"}, "SF-295": {"system": "SF-295"}, "MOLT-4": {"system": "MOLT-4"}, "DU-145": {"system": "DU-145"}, "SNB-19": {"system": "SNB-19"}, "M14": {"system": "M14"}, "CAKI-1": {"system": "CAKI-1"}, "SN12C": {"system": "SN12C"}, "T47D": {"system": "T47D"}, "MCF7": {"system": "MCF7"}, "SK-MEL-2": {"system": "SK-MEL-2"}, "U-251": {"system": "U-251"}, "OVCAR-5": {"system": "OVCAR-5"}, "SW-620": {"system": "SW-620"}, "K562": {"system": "K562"}, "HCT-116": {"system": "HCT-116"}, "MDA-N": {"system": "MDA-N"}, "NCI/ADR-RES": {"system": "NCI/ADR-RES"}, "A498": {"system": "A498"}, "HCT-15": {"system": "HCT-15"}, "ACHN": {"system": "ACHN"}, "KM12": {"system": "KM12"}, "HCC 2998": {"system": "HCC 2998"}, "HOP-92": {"system": "HOP-92"}, "SK-MEL-28": {"system": "SK-MEL-28"}, "HL-60": {"system": "HL-60"}, "NCI-H460": {"system": "NCI-H460"}, "LOX IMVI": {"system": "LOX IMVI"}, "SK-OV-3": {"system": "SK-OV-3"}, "UO-31": {"system": "UO-31"}, "EKVX": {"system": "EKVX"}, "OVCAR-4": {"system": "OVCAR-4"}, "PC-3": {"system": "PC-3"}, "CCRF-CEM": {"system": "CCRF-CEM"}, "MDA-MB-435": {"system": "MDA-MB-435"}, "OVCAR-3": {"system": "OVCAR-3"}, "SNB-75": {"system": "SNB-75"}, "786-0": {"system": "786-0"}, "SK-MEL-5": {"system": "SK-MEL-5"}, "MDA-MB-231": {"system": "MDA-MB-231"}, "UACC-257": {"system": "UACC-257"}, "SR": {"system": "SR"}, "Hs-578T": {"system": "Hs-578T"}, "SF-539": {"system": "SF-539"}, "NCI-H226": {"system": "NCI-H226"}, "TK-10": {"system": "TK-10"}, "IGROV-1": {"system": "IGROV-1"}, "UACC-62": {"system": "UACC-62"}, "HT-29": {"system": "HT-29"}, "Malme-3M": {"system": "Malme-3M"}, "NCI-H522": {"system": "NCI-H522"}, "SF-268": {"system": "SF-268"}, "OVCAR-8": {"system": "OVCAR-8"}}, "note": "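Step 1: Grow cells in 96-well plates. Step 2: Expose to compound for 48 hours at 5 concentrations. Step 3: Interpolate endpoints linearly; if unreached, use highest concentration. Abbreviation: GI50, concentration required for 50% inhibition of growth.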 The source made the active and inactive calls. No stated cut-off is given here; in the data, active = GI50 up to about 1.1 µM and inactive = higher.", "data": [{"smiles": "C#CCCCC(=C)C[C@@H]1OC(=O)[C@H](C)[C@@H]1O", "values": [{"measurement": "GI50", "setting": "RXF 393", "value": "> 100 µM (inactive)"}, {"measurement": "GI50", "setting": "COLO 205", "value": "> 100 µM (inactive)"}, {"measurement": "GI50", "setting": "RPMI-8226", "value": "> 100 µM (inactive)"}, {"measurement": "GI50", "setting": "NCI-H23", "value": "> 100 µM (inactive)"}, {"measurement": "GI50", "setting": "HOP-62", "value": "> 100 µM (inactive)"}, {"measurement": "GI50", "setting": "A549", "value": "> 100 µM (inactive)"}, {"measurement": "GI50", "setting": "SF-295", "value": "> 100 µM (inactive)"}, {"measurement": "GI50", "setting": "MOLT-4", "value": "> 100 µM (inactive)"}, {"measurement": "GI50", "setting": "DU-145", "value": "> 100 µM (inactive)"}, {"measurement": "GI50", "setting": "SNB-19", "value": "> 100 µM (inactive)"}, {"measurement": "GI50", "setting": "M14", "value": "> 100 µM (inactive)"}, {"measurement": "GI50", "setting": "CAKI-1", "value": "> 100 µM (inactive)"}, {"measurement": "GI50", "setting": "SN12C", "value": "> 100 µM (inactive)"}, {"measurement": "GI50", "setting": "T47D", "value": "> 100 µM (inactive)"}, {"measurement": "GI50", "setting": "MCF7", "value": "> 100 µM (inactive)"}, {"measurement": "GI50", "setting": "SK-MEL-2", "value": "> 100 µM (inactive)"}, {"measurement": "GI50", "setting": "U-251", "value": "> 100 µM (inactive)"}, {"measurement": "GI50", "setting": "OVCAR-5", "value": "> 100 µM (inactive)"}, {"measurement": "GI50", "setting": "SW-620", "value": "> 100 µM (inactive)"}, {"measurement": "GI50", "setting": "K562", "value": "> 100 µM (inactive)"}, {"measurement": "GI50", "setting": "HCT-116", "value": "> 100 µM (inactive)"}, {"measurement": "GI50", "setting": "MDA-N", "value": "> 100 µM (inactive)"}, {"measurement": "GI50", "setting": "NCI/ADR-RES", "value": "> 100 µM (inactive)"}, {"measurement": "GI50", "setting": "A498", "value": "> 100 µM (inactive)"}, {"measurement": "GI50", "setting": "HCT-15", "value": "> 100", "unit": "µM"}, {"measurement": "GI50", "setting": "ACHN", "value": "> 100 µM (inactive)"}, {"measurement": "GI50", "setting": "KM12", "value": "> 100 µM (inactive)"}, {"measurement": "GI50", "setting": "HCC 2998", "value": "> 100 µM (inactive)"}, {"measurement": "GI50", "setting": "HOP-92", "value": "> 100 µM (inactive)"}, {"measurement": "GI50", "setting": "SK-MEL-28", "value": "> 100 µM (inactive)"}, {"measurement": "GI50", "setting": "HL-60", "value": "> 100 µM (inactive)"}, {"measurement": "GI50", "setting": "NCI-H460", "value": "> 100 µM (inactive)"}, {"measurement": "GI50", "setting": "LOX IMVI", "value": "> 100 µM (inactive)"}, {"measurement": "GI50", "setting": "SK-OV-3", "value": "> 100 µM (inactive)"}, {"measurement": "GI50", "setting": "UO-31", "value": "> 100 µM (inactive)"}, {"measurement": "GI50", "setting": "EKVX", "value": "> 100 µM (inactive)"}, {"measurement": "GI50", "setting": "OVCAR-4", "value": "> 100 µM (inactive)"}, {"measurement": "GI50", "setting": "PC-3", "value": "> 100 µM (inactive)"}, {"measurement": "GI50", "setting": "CCRF-CEM", "value": "> 100 µM (inactive)"}, {"measurement": "GI50", "setting": "MDA-MB-435", "value": "> 100 µM (inactive)"}, {"measurement": "GI50", "setting": "OVCAR-3", "value": "> 100 µM (inactive)"}, {"measurement": "GI50", "setting": "SNB-75", "value": "> 100 µM (inactive)"}, {"measurement": "GI50", "setting": "786-0", "value": "> 100 µM (inactive)"}, {"measurement": "GI50", "setting": "SK-MEL-5", "value": "> 100 µM (inactive)"}]}, {"smiles": "Cc1cccc2c(N)c3cccc(C(=O)NCC[N+](C)(C)Cc4ccccc4[N+](=O)[O-])c3nc12", "values": [{"measurement": "GI50", "setting": "RXF 393", "value": "9.64 µM (inactive)"}, {"measurement": "GI50", "setting": "MDA-MB-231", "value": "13.6 µM (inactive)"}, {"measurement": "GI50", "setting": "UACC-257", "value": "24.3 µM (inactive)"}, {"measurement": "GI50", "setting": "COLO 205", "value": "9.02 µM (inactive)"}, {"measurement": "GI50", "setting": "SR", "value": "0.258 µM (active)"}, {"measurement": "GI50", "setting": "RPMI-8226", "value": "4.84 µM (inactive)"}, {"measurement": "GI50", "setting": "NCI-H23", "value": "5.22 µM (inactive)"}, {"measurement": "GI50", "setting": "HOP-62", "value": "7.48 µM (inactive)"}, {"measurement": "GI50", "setting": "A549", "value": "2.24 µM (inactive)"}, {"measurement": "GI50", "setting": "SF-295", "value": "6.32 µM (inactive)"}, {"measurement": "GI50", "setting": "MOLT-4", "value": "1.09 µM (active)"}, {"measurement": "GI50", "setting": "DU-145", "value": "8.69 µM (inactive)"}, {"measurement": "GI50", "setting": "SNB-19", "value": "14.1 µM (inactive)"}, {"measurement": "GI50", "setting": "M14", "value": "9.62 µM (inactive)"}, {"measurement": "GI50", "setting": "CAKI-1", "value": "5.71 µM (inactive)"}, {"measurement": "GI50", "setting": "SN12C", "value": "2.11 µM (inactive)"}, {"measurement": "GI50", "setting": "T47D", "value": "14.2 µM (inactive)"}, {"measurement": "GI50", "setting": "MCF7", "value": "4.35 µM (inactive)"}, {"measurement": "GI50", "setting": "SK-MEL-2", "value": "25.8 µM (inactive)"}, {"measurement": "GI50", "setting": "U-251", "value": "5 µM (inactive)"}, {"measurement": "GI50", "setting": "OVCAR-5", "value": "13 µM (inactive)"}, {"measurement": "GI50", "setting": "SW-620", "value": "7.6 µM (inactive)"}, {"measurement": "GI50", "setting": "K562", "value": "4.72 µM (inactive)"}, {"measurement": "GI50", "setting": "HCT-116", "value": "5.92 µM (inactive)"}, {"measurement": "GI50", "setting": "Hs-578T", "value": "6.35 µM (inactive)"}, {"measurement": "GI50", "setting": "MDA-N", "value": "16.9 µM (inactive)"}, {"measurement": "GI50", "setting": "NCI/ADR-RES", "value": "8.67 µM (inactive)"}, {"measurement": "GI50", "setting": "A498", "value": "8.97 µM (inactive)"}, {"measurement": "GI50", "setting": "SF-539", "value": "7.94 µM (inactive)"}, {"measurement": "GI50", "setting": "HCT-15", "value": "> 20.3", "unit": "µM"}, {"measurement": "GI50", "setting": "ACHN", "value": "2.31 µM (inactive)"}, {"measurement": "GI50", "setting": "KM12", "value": "13.4 µM (inactive)"}, {"measurement": "GI50", "setting": "HCC 2998", "value": "9.06 µM (inactive)"}, {"measurement": "GI50", "setting": "NCI-H226", "value": "3.94 µM (inactive)"}, {"measurement": "GI50", "setting": "HOP-92", "value": "10 µM (inactive)"}, {"measurement": "GI50", "setting": "SK-MEL-28", "value": "29.7 µM (inactive)"}, {"measurement": "GI50", "setting": "TK-10", "value": "6.62 µM (inactive)"}, {"measurement": "GI50", "setting": "NCI-H460", "value": "2.24 µM (inactive)"}, {"measurement": "GI50", "setting": "IGROV-1", "value": "5.78 µM (inactive)"}, {"measurement": "GI50", "setting": "UACC-62", "value": "8.05 µM (inactive)"}, {"measurement": "GI50", "setting": "LOX IMVI", "value": "26.2 µM (inactive)"}, {"measurement": "GI50", "setting": "HT-29", "value": "5.22 µM (inactive)"}, {"measurement": "GI50", "setting": "SK-OV-3", "value": "12.6 µM (inactive)"}, {"measurement": "GI50", "setting": "Malme-3M", "value": "6.76 µM (inactive)"}, {"measurement": "GI50", "setting": "UO-31", "value": "13.4 µM (inactive)"}, {"measurement": "GI50", "setting": "NCI-H522", "value": "4.94 µM (inactive)"}, {"measurement": "GI50", "setting": "EKVX", "value": "31.5 µM (inactive)"}, {"measurement": "GI50", "setting": "OVCAR-4", "value": "8.32 µM (inactive)"}, {"measurement": "GI50", "setting": "PC-3", "value": "7.14 µM (inactive)"}, {"measurement": "GI50", "setting": "SF-268", "value": "5.12 µM (inactive)"}, {"measurement": "GI50", "setting": "CCRF-CEM", "value": "1.78 µM (inactive)"}, {"measurement": "GI50", "setting": "MDA-MB-435", "value": "21.1 µM (inactive)"}, {"measurement": "GI50", "setting": "OVCAR-3", "value": "18 µM (inactive)"}, {"measurement": "GI50", "setting": "OVCAR-8", "value": "5.89 µM (inactive)"}, {"measurement": "GI50", "setting": "SNB-75", "value": "1.64 µM (inactive)"}, {"measurement": "GI50", "setting": "786-0", "value": "4.22 µM (inactive)"}, {"measurement": "GI50", "setting": "SK-MEL-5", "value": "7.57 µM (inactive)"}]}]}
